From the supplement of paper PMC11451515

System: SEM cells
Assay: cell viability relative to DMSO control; higher = less cytotoxic
Conditions: 48 h
Outline: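 Viability was expressed as a per-plate percentage of DMSO wells, with cell-free wells as background. Leukemia cells (NOMO1 or SEM at 500 cells/well, P12-Ichikawa at 1000 cells/well) were adapted for at least four passages in each medium and seeded in 1536-well plates (5 μl). Library compounds in DMSO were pin-dosed over an 11-point threefold series from 47 μM to 0.79 nM, and CellTiter-Glo One luminescence was read after 48 h at 37°C.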

[1] = HPLM + 10% dialyzed FBS, 0.000781 µM
[2] = HPLM + 10% dialyzed FBS, 0.00234 µM
[3] = HPLM + 10% dialyzed FBS, 0.00702 µM
[4] = HPLM + 10% dialyzed FBS, 0.0211 µM
[5] = HPLM + 10% dialyzed FBS, 0.0632 µM
[6] = HPLM + 10% dialyzed FBS, 0.19 µM
[7] = HPLM + 10% dialyzed FBS, 0.569 µM
[8] = HPLM + 10% dialyzed FBS, 1.71 µM
[9] = HPLM + 10% dialyzed FBS, 5.12 µM
[10] = HPLM + 10% dialyzed FBS, 15.4 µM
[11] = HPLM + 10% dialyzed FBS, 46.1 µM
[12] = RPMI 5 mM glucose + 10% FBS, 0.000781 µM
[13] = RPMI 5 mM glucose + 10% FBS, 0.00234 µM
[14] = RPMI 5 mM glucose + 10% FBS, 0.00702 µM
[15] = RPMI 5 mM glucose + 10% FBS, 0.0211 µM
[16] = RPMI 5 mM glucose + 10% FBS, 0.0632 µM
[17] = RPMI 5 mM glucose + 10% FBS, 0.19 µM
[18] = RPMI 5 mM glucose + 10% FBS, 0.569 µM
[19] = RPMI 5 mM glucose + 10% FBS, 1.71 µM
[20] = RPMI 5 mM glucose + 10% FBS, 5.12 µM
[21] = RPMI 5 mM glucose + 10% FBS, 15.4 µM
[22] = RPMI 5 mM glucose + 10% FBS, 46.1 µM
[23] = RPMI 5 mM glucose + 10% dialyzed FBS, 0.000781 µM
[24] = RPMI 5 mM glucose + 10% dialyzed FBS, 0.00234 µM
[25] = RPMI 5 mM glucose + 10% dialyzed FBS, 0.00702 µM
[26] = RPMI 5 mM glucose + 10% dialyzed FBS, 0.0211 µM
[27] = RPMI 5 mM glucose + 10% dialyzed FBS, 0.0632 µM
[28] = RPMI 5 mM glucose + 10% dialyzed FBS, 0.19 µM
[29] = RPMI 5 mM glucose + 10% dialyzed FBS, 0.569 µM
[30] = RPMI 5 mM glucose + 10% dialyzed FBS, 1.71 µM
[31] = RPMI 5 mM glucose + 10% dialyzed FBS, 5.12 µM
[32] = RPMI 5 mM glucose + 10% dialyzed FBS, 15.4 µM
[33] = RPMI 5 mM glucose + 10% dialyzed FBS, 46.1 µM

FC1=CC=C(CN2\C=C/C=C(/C(=O)N[C@@H](COC3=CC4=C(NC(=O)N4)C=C3)C5=CC=CC=C5)C2=O)C=C1F
cell viability [1]: 79.5% | cell viability [2]: 85.6% | cell viability [3]: 69.3% | cell viability [4]: 94.2% | cell viability [5]: 93.8% | cell viability [6]: 98.8% | cell viability [7]: 93.3% | cell viability [8]: 77.5% | cell viability [9]: 61% | cell viability [10]: 54.6% | cell viability [11]: 41.8% | cell viability [12]: 93.6% | cell viability [13]: 108% | cell viability [14]: 85.9% | cell viability [15]: 119% | cell viability [16]: 109% | cell viability [17]: 108% | cell viability [18]: 93.8% | cell viability [19]: 90% | cell viability [20]: 57.1% | cell viability [21]: 59.4% | cell viability [22]: 38.5% | cell viability [23]: 79.8% | cell viability [24]: 91.2% | cell viability [25]: 78.5% | cell viability [26]: 93.4% | cell viability [27]: 84.5% | cell viability [28]: 93.1% | cell viability [29]: 81% | cell viability [30]: 76.9% | cell viability [31]: 57.4% | cell viability [32]: 49.8% | cell viability [33]: 44.3%

NCCCC(O)(P(=O)(O)O)P(=O)(O)O.O.O.O.[Na+]
cell viability [1]: 141% | cell viability [2]: 106% | cell viability [3]: 118% | cell viability [4]: 120% | cell viability [5]: 122% | cell viability [6]: 118% | cell viability [7]: 125% | cell viability [8]: 110% | cell viability [9]: 71% | cell viability [10]: 56.6% | cell viability [11]: 15.4% | cell viability [12]: 124% | cell viability [13]: 125% | cell viability [14]: 109% | cell viability [15]: 130% | cell viability [16]: 112% | cell viability [17]: 122% | cell viability [18]: 99.3% | cell viability [19]: 101% | cell viability [20]: 22.5% | cell viability [21]: 16.6% | cell viability [22]: 6.56% | cell viability [23]: 125% | cell viability [24]: 111% | cell viability [25]: 133% | cell viability [26]: 118% | cell viability [27]: 122% | cell viability [28]: 113% | cell viability [29]: 110% | cell viability [30]: 116% | cell viability [31]: 37.5% | cell viability [32]: 27.9% | cell viability [33]: 7.61%

COCCCOc1ccnc(C[S+]([O-])c2nc3ccccc3[nH]2)c1C (stereo unspecified)
cell viability [1]: 97% | cell viability [2]: 102% | cell viability [3]: 110% | cell viability [4]: 115% | cell viability [5]: 107% | cell viability [6]: 113% | cell viability [7]: 127% | cell viability [8]: 109% | cell viability [9]: 102% | cell viability [10]: 109% | cell viability [11]: 94.3% | cell viability [12]: 72.3% | cell viability [13]: 72.1% | cell viability [14]: 71.3% | cell viability [15]: 82.6% | cell viability [16]: 73.1% | cell viability [17]: 79% | cell viability [18]: 78.6% | cell viability [19]: 76.7% | cell viability [20]: 65.6% | cell viability [21]: 81.3% | cell viability [22]: 75.2% | cell viability [23]: 97.9% | cell viability [24]: 110% | cell viability [25]: 91.3% | cell viability [26]: 107% | cell viability [27]: 98.8% | cell viability [28]: 103% | cell viability [29]: 109% | cell viability [30]: 100% | cell viability [31]: 115% | cell viability [32]: 108% | cell viability [33]: 108%

Cn1cnc(-c2cc3nccc(Oc4ccc(NC(=S)NC(=O)Cc5ccccc5)cc4F)c3s2)c1
cell viability [1]: 53.6% | cell viability [2]: 82.3% | cell viability [3]: 67.1% | cell viability [4]: 57.5% | cell viability [5]: 46% | cell viability [6]: 46.9% | cell viability [7]: 43.9% | cell viability [8]: 30.5% | cell viability [9]: 31.2% | cell viability [10]: 32.4% | cell viability [11]: 12.8% | cell viability [12]: 82.5% | cell viability [13]: 94.7% | cell viability [14]: 85.6% | cell viability [15]: 68.4% | cell viability [16]: 53.7% | cell viability [17]: 66.1% | cell viability [18]: 46.2% | cell viability [19]: 38.2% | cell viability [20]: 30.5% | cell viability [21]: 24.8% | cell viability [22]: 2.88% | cell viability [23]: 68.9% | cell viability [24]: 63.1% | cell viability [25]: 70% | cell viability [26]: 43.8% | cell viability [27]: 35.3% | cell viability [28]: 36% | cell viability [29]: 35.3% | cell viability [30]: 25.4% | cell viability [31]: 24.7% | cell viability [32]: 20.1% | cell viability [33]: 4.88%

CN1CCN(Cc2ccc(NC(=O)Nc3ccc(Oc4cc(NC(=O)C5CC5)ncn4)cc3)cc2C(F)(F)F)CC1
cell viability [1]: 86.5% | cell viability [2]: 72.2% | cell viability [3]: 54.1% | cell viability [4]: 53.4% | cell viability [5]: 51.4% | cell viability [6]: 25% | cell viability [7]: 6.43% | cell viability [8]: 5.04% | cell viability [9]: 3.88% | cell viability [10]: 3.17% | cell viability [11]: 0.399% | cell viability [12]: 103% | cell viability [13]: 80.1% | cell viability [14]: 53.9% | cell viability [15]: 49.1% | cell viability [16]: 41.6% | cell viability [17]: 23% | cell viability [18]: 4.1% | cell viability [19]: 2.81% | cell viability [20]: 2.25% | cell viability [21]: 1.45% | cell viability [22]: 0.371% | cell viability [23]: 94.9% | cell viability [24]: 72.4% | cell viability [25]: 44.6% | cell viability [26]: 36.5% | cell viability [27]: 46% | cell viability [28]: 23.7% | cell viability [29]: 5.01% | cell viability [30]: 4.22% | cell viability [31]: 3.2% | cell viability [32]: 2.37% | cell viability [33]: 0.407%

COC1=CC(=CC=C1)C2=CC=C(NC(=O)/C3=C(/CCC3)C(O)=O)C(=C2)F
cell viability [1]: 103% | cell viability [2]: 109% | cell viability [3]: 116% | cell viability [4]: 108% | cell viability [5]: 122% | cell viability [6]: 108% | cell viability [7]: 119% | cell viability [8]: 107% | cell viability [9]: 104% | cell viability [10]: 104% | cell viability [11]: 76.6% | cell viability [12]: 92.5% | cell viability [13]: 108% | cell viability [14]: 112% | cell viability [15]: 116% | cell viability [16]: 127% | cell viability [17]: 120% | cell viability [18]: 121% | cell viability [19]: 118% | cell viability [20]: 107% | cell viability [21]: 111% | cell viability [22]: 42.8% | cell viability [23]: 95.6% | cell viability [24]: 115% | cell viability [25]: 109% | cell viability [26]: 113% | cell viability [27]: 103% | cell viability [28]: 109% | cell viability [29]: 105% | cell viability [30]: 111% | cell viability [31]: 111% | cell viability [32]: 78.2% | cell viability [33]: 30.9%

O=C(Nc1ccc([N+](=O)[O-])cc1Cl)c1cc(Cl)ccc1O
cell viability [1]: 84.5% | cell viability [2]: 98.7% | cell viability [3]: 93.1% | cell viability [4]: 98.2% | cell viability [5]: 99.7% | cell viability [6]: 97.6% | cell viability [7]: 104% | cell viability [8]: 43.3% | cell viability [9]: 24.2% | cell viability [10]: 64.1% | cell viability [11]: 33.9% | cell viability [12]: 75% | cell viability [13]: 89.7% | cell viability [14]: 96.8% | cell viability [15]: 101% | cell viability [16]: 101% | cell viability [17]: 105% | cell viability [18]: 117% | cell viability [19]: 22.1% | cell viability [20]: 19.7% | cell viability [21]: 3.97% | cell viability [22]: 32.3% | cell viability [23]: 96.9% | cell viability [24]: 85.7% | cell viability [25]: 88.8% | cell viability [26]: 103% | cell viability [27]: 96.7% | cell viability [28]: 99.2% | cell viability [29]: 123% | cell viability [30]: 19.6% | cell viability [31]: 17.1% | cell viability [32]: 66.3% | cell viability [33]: 47%
